Experimental findings from PubChem BioAssay (NCI) are described below.

Some test systems named below: HT29 colon; NCI-H460 lung; SNB-75 CNS; CCRF-CEM leukemia; K-562 leukemia; HL-60(TB) leukemia; HS 578T breast; SF-268 CNS; HCT-116 colon; HOP-62 NSCLC.
Holding throughout (experiment): inhibition of tumour cell growth, NCI panel, 48 h

Molecules are shown by their SMILES.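 Step 1: Grow cells in 96-well plates. Step 2: Expose to compound for 48 hours at 5 concentrations. Step 3: Interpolate endpoints linearly; if unreached, use highest concentration. Abbreviation: GI50, concentration required for 50% inhibition of growth. At the TGI there is no net growth.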

As to `CCN(CC)CCOc1ccc2c(C)c(C(=O)OC)oc2c1C(=O)/C=C/c1ccc(OC)cc1`, the GI50 in the experiment with HT29 colon is 1.9 µM; in the experiment on NCI-H460 lung, 3.65 µM; in the experiment on SNB-75 CNS, 2.81 µM; with CCRF-CEM leukemia it was 1.35 µM; in the experiment on K-562 leukemia, 1.13 µM; in the experiment with HL-60(TB) leukemia it was 1.94 µM. Further, the GI50 is 24.1 µM in the experiment with HS 578T breast, 3.75 µM with SF-268 CNS, 57.8 µM in the experiment with HCT-116 colon and 28.5 µM in the experiment with HOP-62 NSCLC. Also, the TGI with HT29 colon was 13 µM; with NCI-H460 lung it was above 67.4 µM; in the experiment with SNB-75 CNS, 8.44 µM; with CCRF-CEM leukemia it was 4.52 µM; in the experiment with K-562 leukemia it was above 20.1 µM; with HL-60(TB) leukemia, 6.11 µM. Also, the TGI with HS 578T breast is 51.4 µM; in the experiment on SF-268 CNS, above 28.1 µM; with HCT-116 colon, above 100 µM; in the experiment with HOP-62 NSCLC, above 55.6 µM.

With `COc1cccc(C2C(C#N)=C(N)Oc3cc4c(cc32)OCO4)c1` (stereo not given), the GI50 with HT29 colon is 0.0417 µM; in the experiment with NCI-H460 lung, 0.0438 µM; with SNB-75 CNS it was 0.0275 µM; in the experiment on CCRF-CEM leukemia, 0.0362 µM; with K-562 leukemia, 0.04 µM; in the experiment with HL-60(TB) leukemia, 0.029 µM. Also, the GI50 was 0.0316 µM in the experiment on HS 578T breast, 0.317 µM in the experiment with SF-268 CNS, 0.0459 µM in the experiment with HCT-116 colon and 0.0501 µM with HOP-62 NSCLC. Further, the TGI is 2.42 µM in the experiment with HT29 colon; 12.2 µM in the experiment on NCI-H460 lung; 46.5 µM with SNB-75 CNS; 19.9 µM in the experiment on CCRF-CEM leukemia; above 100 µM with K-562 leukemia; 0.279 µM in the experiment on HL-60(TB) leukemia. Moreover, the TGI in the experiment with HS 578T breast was 25.5 µM; in the experiment on SF-268 CNS it was above 37.8 µM; with HCT-116 colon, 11 µM; in the experiment on HOP-62 NSCLC, 27.2 µM.

With `CN(C)c1ccc(C2CC(C)(O)Oc3cc4c(cc32)OCO4)cc1` (stereo not given), the TGI is 76.1 µM in the experiment on HT29 colon; above 100 µM in the experiment with NCI-H460 lung; 75.1 µM in the experiment on SNB-75 CNS; above 100 µM with CCRF-CEM leukemia; above 100 µM in the experiment on K-562 leukemia; above 100 µM in the experiment on HL-60(TB) leukemia. Also, the TGI in the experiment on HS 578T breast, in the experiment on SF-268 CNS, in the experiment with HCT-116 colon and with HOP-62 NSCLC was above 100 µM in each case.

`COc1ccc(/C=C\c2cc(OC)c(OC)c(OC)c2)c(NS(=O)(=O)c2ccc(C(C)(C)C)cc2)c1O`: the GI50 in the experiment on HT29 colon was 3.51 µM; in the experiment on NCI-H460 lung, 0.375 µM; in the experiment with SNB-75 CNS it was 0.231 µM; in the experiment on CCRF-CEM leukemia, 0.468 µM; in the experiment with K-562 leukemia it was 0.0714 µM; in the experiment on HL-60(TB) leukemia it was 0.039 µM. The GI50 in the experiment with HS 578T breast is 0.521 µM; in the experiment with SF-268 CNS it was 1.71 µM; in the experiment with HCT-116 colon, 0.365 µM; in the experiment on HOP-62 NSCLC, 10.1 µM. The TGI in the experiment on HT29 colon was 18.6 µM; in the experiment on NCI-H460 lung, 11 µM; in the experiment with SNB-75 CNS, 14.1 µM; with CCRF-CEM leukemia it was 35.8 µM; in the experiment with K-562 leukemia, above 100 µM; in the experiment with HL-60(TB) leukemia it was 2.34 µM. Besides, the TGI with HS 578T breast turned out to be 19.9 µM; with SF-268 CNS, 41.2 µM; with HCT-116 colon it was 13.6 µM; with HOP-62 NSCLC, 70.3 µM.

For the molecule `NC(N)=N/N=C(/c1ccccc1)c1ccccc1F`, the GI50 with HT29 colon is 0.628 µM; with NCI-H460 lung, 2.31 µM; in the experiment with SNB-75 CNS, 0.661 µM; in the experiment with CCRF-CEM leukemia it was 5.08 µM; with K-562 leukemia, 1.32 µM; in the experiment on HL-60(TB) leukemia, 2.96 µM. In addition, the GI50 is 2.79 µM with HS 578T breast, 5.48 µM with SF-268 CNS, 2.37 µM with HCT-116 colon and 4.62 µM in the experiment with HOP-62 NSCLC. Also, the TGI in the experiment with HT29 colon is 11.5 µM; in the experiment with NCI-H460 lung, 10.4 µM; in the experiment on SNB-75 CNS it was 21.7 µM; with CCRF-CEM leukemia, above 100 µM; in the experiment on K-562 leukemia it was above 100 µM; in the experiment on HL-60(TB) leukemia, above 100 µM. For the same molecule, the TGI with HS 578T breast amounted to 11.6 µM; in the experiment on SF-268 CNS it was 26.9 µM; in the experiment with HCT-116 colon, 12.3 µM; with HOP-62 NSCLC, 18.2 µM.

For the molecule `Cc1ccc(C2=C(Cl)C(=O)C(c3ccc(C)cc3)=C(Cl)C2=O)cc1`, the TGI in the experiment with HT29 colon, with NCI-H460 lung, in the experiment with SNB-75 CNS, in the experiment on CCRF-CEM leukemia, in the experiment with K-562 leukemia and in the experiment on HL-60(TB) leukemia was above 100 µM throughout. Also, the TGI with HS 578T breast, with SF-268 CNS, with HCT-116 colon and in the experiment on HOP-62 NSCLC was above 100 µM in each case.

Turning to `CC1=C(CNO)C2=C(C)C3(CC3)[C@@](C)(O)C(=O)C2=C1`, the GI50 with HT29 colon is 2.34 µM; in the experiment with NCI-H460 lung it was 0.358 µM; in the experiment on SNB-75 CNS, 1.38 µM; in the experiment on CCRF-CEM leukemia, 6.6 µM; with K-562 leukemia, 11.9 µM; with HL-60(TB) leukemia, 2.77 µM. The GI50 in the experiment with HS 578T breast is 2.7 µM; in the experiment with SF-268 CNS, 0.766 µM; in the experiment with HCT-116 colon, 1.85 µM; with HOP-62 NSCLC, 0.61 µM. Also, the TGI with HT29 colon was 58.8 µM; in the experiment with NCI-H460 lung, 3.87 µM; in the experiment with SNB-75 CNS, 2.86 µM; in the experiment on CCRF-CEM leukemia it was 60.6 µM; in the experiment on K-562 leukemia, above 100 µM; with HL-60(TB) leukemia it was 30.7 µM. For the same molecule, the TGI was found to be 9.18 µM with HS 578T breast, 9.89 µM in the experiment with SF-268 CNS, 5.21 µM in the experiment on HCT-116 colon and 4.57 µM with HOP-62 NSCLC.

For the molecule `CC1(C)CC[C@]2(C(=O)O)CC[C@]3(C)C(=CC[C@@H]4[C@@]5(C)C/C(=C/c6ccco6)C(=O)C(C)(C)[C@@H]5CC[C@]43C)[C@@H]2C1`, the GI50 is 3.14 µM in the experiment on HT29 colon; 3.38 µM with NCI-H460 lung; 3.04 µM in the experiment on SNB-75 CNS; 3.16 µM with CCRF-CEM leukemia; 3.37 µM in the experiment on K-562 leukemia; 2.55 µM in the experiment on HL-60(TB) leukemia. The GI50 was 5.19 µM with HS 578T breast, 4.03 µM in the experiment on SF-268 CNS, 2.9 µM in the experiment on HCT-116 colon and 3.75 µM in the experiment with HOP-62 NSCLC. Moreover, the TGI with HT29 colon is 14.1 µM; in the experiment with NCI-H460 lung it was 12.2 µM; with SNB-75 CNS, 54.6 µM; in the experiment with CCRF-CEM leukemia it was 31.6 µM; with K-562 leukemia, above 100 µM; in the experiment on HL-60(TB) leukemia, 6.84 µM. The TGI came to 54.1 µM in the experiment with HS 578T breast, 23 µM with SF-268 CNS, 12 µM in the experiment with HCT-116 colon and 14.9 µM in the experiment with HOP-62 NSCLC.

For `CC1=C2[C@@H](CC1)[C@]1(C)O[C@@](C3CC3)(C[C@H]1OC(=O)CO)[C@H]2OC(=O)/C=C/c1ccccc1`, the GI50 with HT29 colon was 16.1 µM; in the experiment on NCI-H460 lung it was 16.6 µM; in the experiment with SNB-75 CNS, 12.6 µM; in the experiment with CCRF-CEM leukemia, 17.4 µM; with K-562 leukemia it was 16.1 µM; in the experiment with HL-60(TB) leukemia, 15.6 µM. The GI50 in the experiment on HS 578T breast was below 0.0153 µM; with SF-268 CNS it was 4.03 µM; in the experiment with HCT-116 colon it was 16 µM; with HOP-62 NSCLC, 15.4 µM. Further, the TGI was found to be 32.2 µM in the experiment with HT29 colon; 33.1 µM in the experiment on NCI-H460 lung; 30.5 µM in the experiment on SNB-75 CNS; 39.7 µM with CCRF-CEM leukemia; 46 µM in the experiment with K-562 leukemia; 42.6 µM in the experiment on HL-60(TB) leukemia. Also, the TGI in the experiment with HS 578T breast is 0.845 µM; with SF-268 CNS, 23.1 µM; in the experiment on HCT-116 colon it was 30.9 µM; in the experiment on HOP-62 NSCLC, 30.2 µM.

Consider `COc1cc(/C=C2\C(=O)N(C)c3ccccc32)cc(OC)c1OC`, for which the GI50 in the experiment with HT29 colon was 14.7 µM; in the experiment on NCI-H460 lung, 10.8 µM; in the experiment with SNB-75 CNS it was 11.5 µM; with CCRF-CEM leukemia it was 5.42 µM; in the experiment with K-562 leukemia it was 5.02 µM; with HL-60(TB) leukemia it was 7.26 µM. Further, the GI50 with HS 578T breast was 27.4 µM; with SF-268 CNS it was 0.793 µM; with HCT-116 colon, 11 µM; in the experiment on HOP-62 NSCLC, 20.2 µM. In addition, the TGI in the experiment on HT29 colon is above 100 µM; with NCI-H460 lung, 64.1 µM; with SNB-75 CNS it was 70 µM; in the experiment with CCRF-CEM leukemia it was 87.9 µM; in the experiment with K-562 leukemia it was above 100 µM; in the experiment on HL-60(TB) leukemia, above 100 µM. Moreover, the TGI is above 100 µM with HS 578T breast, above 100 µM in the experiment on SF-268 CNS, 30.7 µM in the experiment with HCT-116 colon and 54 µM in the experiment on HOP-62 NSCLC.

For `OCCCCC#Cc1ccccc1C#Cc1ccc(C(F)(F)F)cc1`, the GI50 was 3.43 µM in the experiment on HT29 colon; 23.3 µM in the experiment with NCI-H460 lung; 15.8 µM with SNB-75 CNS; 19.6 µM with CCRF-CEM leukemia; 18.2 µM in the experiment on K-562 leukemia; 17.7 µM in the experiment with HL-60(TB) leukemia. For the same molecule, the GI50 with HS 578T breast was 26.3 µM; in the experiment on SF-268 CNS it was 22 µM; in the experiment with HCT-116 colon, 16.9 µM; in the experiment with HOP-62 NSCLC, 11.4 µM. For the same molecule, the TGI with HT29 colon came out at 18.1 µM; with NCI-H460 lung, 60.3 µM; in the experiment with SNB-75 CNS, 30.2 µM; in the experiment on CCRF-CEM leukemia, 44.1 µM; in the experiment on K-562 leukemia, 43.6 µM; with HL-60(TB) leukemia it was 38.8 µM. Also, the TGI worked out at 65.9 µM in the experiment on HS 578T breast, 48 µM in the experiment on SF-268 CNS, 35.8 µM in the experiment on HCT-116 colon and 24.3 µM with HOP-62 NSCLC.
